Assay results published in US8846914B2, “Compositions to effect neuronal growth” (Neuralstem, Inc., priority 2003, dated 2014).

Legend:
[1] = tested on: Differentiating hippocampal stem cells; test: Committed neuronal progenitors (Ki-67 / TuJ1 co-staining); format: cell-based, human; conditions: treated for 10 days; FIG. 14
Experimental: FIG. 14 is a micrograph illustrating an example of production of committed neuronal progenitors by NSI-106. Differentiating hippocampal stem cells were treated with NSI-106 for 10 days, fixed, and stained for Ki-67 protein as well as TuJ1. Ki-67 protein is an endogenous marker of mitosis.
FIG. 14 illustrates committed neuronal progenitor production by NSI-106. Differentiating hippocampal stem cells are treated with NSI-106 for 10 days, fixed, and stained for Ki-67 protein to detect dividing cells as well as TuJ1 to detect cells that have differentiated into neurons, Ki-67 protein is an endogenous marker of mitosis.

[2] = tested on: human hippocampal stem cells; test: Neuronal identification of mitotic cells (BrdU / TuJ1 co-staining); format: cell-based; conditions: BrdU during last forty-eight hours of two-week treatment; FIG. 13
From the text: FIG. 13 is a bar graph illustrating an example of neuronal identification of the mitotic cells in response to the compound treatment. Mitotic cells were labeled with BrdU during the last forty-eight hours of the two-week treatment with the test compounds. BrdU alone and BrdU together with TuJ1 as co-stained cells were quantified. Results from NSI-106 and LIF treatment are shown as an example. […] The bars represent the mean±SD from each of six wells.
In FIG. 13, mitotic cells are labeled with BrdU during the last forty-eight hours of a two-week treatment with the test compounds. BrdU alone and BrdU together with TuJ1 as co-stained cells are quantified.
As described in pending U.S. patent application Ser. No. 10/728,652, leukemia inhibitory factor (LIF), a cytokine growth factor, was selected from among several known neurotrophic factors as a positive control against which tested compounds can be compared. […] This effect is both consistent with the neural stem cell system in which the cells respond appropriately to the positive control by enhanced differentiation and/or mitosis, and achieves the objective of the assay method in which such cellular responses can be measured reproducibly and quantifiably.
Results from NSI-106 and the positive control, LIF treatment are shown as an example. […] The bars represent the mean±SD from each of six wells.

[3] = tested on: dentate gyrus of C57B16 adult mice; test: In vivo neurogenesis, BrdU immunostaining of dentate gyrus; design: species or system mouse; conditions: for Neurogenesis in the dentate gyrus (BrdU-immunopositive cells): 10 mg/kg orally for ten days, healthy adult mice
Experimental: FIG. 9A and FIG. 9B are micrographs illustrating an example of BrdU immunostaining of a mouse dentate gyrus having been administered a vehicle and a compound. Mice were treated daily with various test compounds at 10 mg/kg p.o. (FIG. 9B) or vehicle alone (FIG. 9A) for ten days. The animals were injected daily with BrdU for the first seven days. At the end of the ten-day period, the animals were perfused and their brains sliced for immunostaining with anti-BrdU antibody and analysis.
FIGS. 10A and 10B are bar graphs illustrating an example of quantification of BrdU-immunopositive cells in the in vivo neurogenesis testing the compounds. Mice were treated with the various test compounds for in vivo neurogenesis in two cohorts. The cells from one dentate gyrus of each mouse in each test group were counted and average BrdU values immunoreactivity are shown. The symbols, * and ** indicate immunoreactivity increases of statistical significant the indicated p values. Seven compounds are especially effective in increasing the neurogenesis in the dentate gyrus of the healthy adult mice, the area known to have continued adult neurogenesis.
In one embodiment, fifteen of the compounds from Table I above are administered orally to mice at 10 mg/kg for ten days and co-administered bromodeoxyuridine (BrdU) by intraperitoneal injection for the first […] days. […] For example, in FIGS. 9A and 9B, BrdU immunostainings of hippocampal slices from two mice treated with either vehicle alone or NSI-158 are illustrated. In FIGS. 9A and 9B, the mice are treated daily for ten days with vehicle alone (FIG. 9A) or orally with various test compounds at 10 mg/kg (FIG. 9B). The animals are injected daily with BrdU for the first seven days. […]
Mice were treated with the various test compounds for in vivo neurogenesis in two cohorts as described above. The cells from one dentate gyrus of each mouse in each test group were counted and average BrdU immunoreactivity values are calculated. […]

[4] = tested on: human hippocampal stem cells differentiated for a period of 3-4 weeks; test: 2° Assay Cell#/Apop (secondary neuroprotection/apoptosis assay); format: cell-based
From the text: Other potential AD therapeutics progressing in clinical trials, target neurodegeneration in the hopes of reducing the neuronal loss and cognitive decline. Apoptotic death involving caspase pathways and DNA fragmentation has been measured in in vitro and animal models of AD and in Alzheimer's diseased brain tissue. The extent of apoptosis leading to neuronal loss is of continual debate with most agreeing it has some effect, but that other neuronal death pathways definitely play a role (see Behl, 2000; Broe et al., 2001, Roth, 2001). […]
A number of neurogenic agents inhibit neuronal loss, caspase-3 activity and/or nuclear fragmentation compared to staurosporine vehicle control. These NSI small molecule agents are all effective at in vitro neurogenesis as determined by methods described. […] Instrumentation such as a Molecular Devices fluorescent plate reader or a […] Array Scan II instrument and the like may be used to measure the degeneration and apoptosis.
Another assay used to determine the ability of a compound to provide neuroprotection is an apoptosis assay. Apoptosis is measured using the activity of an early matter of the programmed cell death pathway, caspase-3. […] Caspase-3 activity is expressed as μM of cleaved substrate per hour. […]

## CCCCNc1c(C2CCN(C(=O)CN(CC(C)C)S(C)(=O)=O)CC2)nc2cnccn12 [NSI-106]
[1]
  Ki-67 and TuJ1 co-stained cells: significant number of cells are co-stained
[2]
  BrdU and TuJ1 co-stained mitotic cells: produces mostly co-stained cells

## NC(=O)C1CCCN1C(=O)c1cccnc1NCC1CCCCC1 (stereo not shown) [NSI-158]
[3]
  Neurogenesis in the dentate gyrus (BrdU-immunopositive cells): especially effective at promoting neurogenesis
[3]; 10 mg/kg p.o. daily for ten days, FIG. 9A/9B
  Dividing cells in the dentate gyrus versus vehicle (BrdU immunostaining): far greater dividing cells

## O=C(NCc1nc2ccccn2c1NCC1CCCO1)Oc1ccccc1 (stereo not shown) [NSI-182]
[4]
  2° Assay Apop: 100 ± 27
  2° Assay Cell#: 78 ± 34/

## CC(C)CCNc1ncccc1C(=O)N1CCN(Cc2ccccc2)CC1 [NSI-189]
[3]
  Neurogenesis in the dentate gyrus (BrdU-immunopositive cells): especially effective at promoting neurogenesis
